# Experimental data: paper PMC4317228 (Pharmacology Research & Perspectives, 2014)
# pIC50, pKd: −log10 of the molar value.
# Key:
# [1] = biological target: T1, human metabotropic glutamate type 2 receptor (hmGlu2) (Homo sapiens, UniProt Q14416); experiment: [3H]DCG-IV saturation binding, hmGlu2 CHO membranes
# T1 construct: gene GRM2; full-length receptor, stably expressed in CHO cells (membranes)
# [2] = biological target: T2, human 5HT2A receptor (h5HT2A) (Homo sapiens, UniProt P28223); experiment: [3H]ketanserin displacement
# T2 construct: gene HTR2A
# T2 sequence (P28223 whole entry): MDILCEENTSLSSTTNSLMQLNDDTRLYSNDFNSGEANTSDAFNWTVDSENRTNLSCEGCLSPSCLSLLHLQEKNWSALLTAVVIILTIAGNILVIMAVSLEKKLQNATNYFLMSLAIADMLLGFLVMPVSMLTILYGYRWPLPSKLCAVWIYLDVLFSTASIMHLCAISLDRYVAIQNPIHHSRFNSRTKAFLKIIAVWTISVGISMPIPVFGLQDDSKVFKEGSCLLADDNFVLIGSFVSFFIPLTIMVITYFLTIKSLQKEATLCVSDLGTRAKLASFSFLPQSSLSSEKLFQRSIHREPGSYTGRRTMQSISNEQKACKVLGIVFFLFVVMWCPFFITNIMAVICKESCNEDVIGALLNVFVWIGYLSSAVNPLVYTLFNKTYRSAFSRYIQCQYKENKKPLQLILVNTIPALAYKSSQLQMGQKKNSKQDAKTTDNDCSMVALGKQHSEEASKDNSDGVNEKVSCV
# T1 sequence (Q14416 19-872): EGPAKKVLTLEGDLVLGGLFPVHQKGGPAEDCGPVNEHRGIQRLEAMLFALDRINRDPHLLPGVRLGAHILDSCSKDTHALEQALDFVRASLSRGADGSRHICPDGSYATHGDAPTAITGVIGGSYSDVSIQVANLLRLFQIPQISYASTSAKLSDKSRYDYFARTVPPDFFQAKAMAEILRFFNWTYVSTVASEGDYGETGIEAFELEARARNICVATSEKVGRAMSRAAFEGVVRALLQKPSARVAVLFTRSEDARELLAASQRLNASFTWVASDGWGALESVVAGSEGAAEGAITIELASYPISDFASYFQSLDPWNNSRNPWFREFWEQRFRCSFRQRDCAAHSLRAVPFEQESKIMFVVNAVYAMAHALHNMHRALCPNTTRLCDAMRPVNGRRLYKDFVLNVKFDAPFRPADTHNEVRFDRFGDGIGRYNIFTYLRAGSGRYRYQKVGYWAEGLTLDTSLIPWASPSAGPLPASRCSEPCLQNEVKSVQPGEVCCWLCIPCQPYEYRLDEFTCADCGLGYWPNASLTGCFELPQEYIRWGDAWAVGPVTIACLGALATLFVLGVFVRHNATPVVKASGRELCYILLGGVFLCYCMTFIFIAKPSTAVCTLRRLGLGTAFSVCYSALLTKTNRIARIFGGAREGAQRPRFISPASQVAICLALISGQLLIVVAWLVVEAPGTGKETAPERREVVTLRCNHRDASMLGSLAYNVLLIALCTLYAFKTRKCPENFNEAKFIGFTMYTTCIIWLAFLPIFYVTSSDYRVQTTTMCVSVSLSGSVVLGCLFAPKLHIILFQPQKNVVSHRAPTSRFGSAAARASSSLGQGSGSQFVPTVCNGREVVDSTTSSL
pKd [1],pIC50 [2],SMILES
6.70,–,N[C@H](C(=O)O)C1[C@@H](C(=O)O)[C@@H]1C(=O)O (some centres unmarked) [DCG-IV]
–,6.99,CCCCn1ccc(N2CCC(c3ccc(O)cc3)CC2)c(Cl)c1=O [JNJ-42159052]
